Test results from paper PMC3071374, “High Throughput Screens Yield Small Molecule Inhibitors of Leishmania CRK3:CYC6 Cyclin-Dependent Kinase” (PLoS Neglected Tropical Diseases, 2011).
Where two headings read alike, the source gives them in different places.

Columns and labels:
Leishmania CRK3:CYC6 = Leishmania CRK3:CYC6 (Leishmania major, UniProt O96526); type: biochemical
Protocol: (§1) Leishmania CRK3:CYC6 protein kinase assays were performed in 96-well microtiter plates in a final volume of 25 µl. Each assay point contained 7.5 ng of co-expressed histidine-tagged CRK3:CYC6 protein kinase complex (hereafter referred to as CRK3:CYC6) diluted in enzyme dilution buffer (EDB) (20 mM Tris-HCl pH 7.2, 0.5 mg ml^−1 BSA, 2.5% glycerol and 0.006% Brij-35). Assays were performed using the assay development buffer (ADB) (20 mM MOPS, pH 7.0, 25 mM β-glycerophosphate, 5 mM EGTA, 1 mM NaVO3, 1 mM DTT and 15 mM MgCl2) supplemented with 100 µM ATP, 0.5 µCi of γ-^32P ATP per reaction and histone H1 as a substrate used at 0.4 mg ml^−1. Two and three-fold titrations were set up to determine the concentration of enzyme to be used per assay point (7.5 ng) and to determine the concentrations of selected inhibitors required for 50% inhibition of Leishmania CRK3:CYC6 protein kinase activity (IC50 values), respectively. For IC50 determinations, assay mixes contained DMSO to a final concentration of 2%. Mammalian protein kinase assays were carried out according to the assay protocols developed at Cyclacel. Assays were carried out for 30 minutes at 30°C before stopping the reaction by the addition of an equal volume (25 µl) of 75 mM orthophosphoric acid. Samples were spotted onto a p81 cellulose filterplate (Nunc) and a vacuum applied. Wells were washed 3×200 µl with 75 mM phosphoric acid and the bottom of the plate sealed. 50 µl of Microscint 40 (Perkin Elmer) was added per well before incorporation of radioactivity was determined on a Topcount microplate scintillation counter.

WT promastigote L. major = experiment: L. major promastigote growth inhibition assay (resazurin); type: cell-based; settings: for inhibition of parasite growth in culture (in words): promastigotes and intra-macrophage amastigotes in culture; for IC50: 5 days at 25°C, read-out: IC50 against WT promastigote L. major
Protocol: L. major wild type promastigotes (Friedlin strain: WHO designation MHOM/JL/81/Friedlin) were grown at 25°C in HOMEM medium (Invitrogen cat no. 041-94699111) supplemented with 10% (v/v) heat inactivated foetal calf serum (HIFCS) and 1% (v/v) penicillin/streptomycin antibiotics.
CRK3 inhibitors were diluted into HOMEM medium supplemented with 10% HIFCS at twice the final screening concentration. Five-fold or ten-fold serial dilutions were carried out into HOMEM medium supplemented with 10% HIFCS. 100 µl of each drug concentration were added to a 96 well plate in duplicate. 100 µl of five-fold or ten-fold serial dilutions of 1 mM Pentamidine (Sigma) and an equivalent volume of 100% DMSO were included as positive and negative controls, in duplicate, respectively. L. major promastigote cells were diluted to a cell density of 2×10^6 cells ml^−1 in HOMEM media supplemented with 10% HIFCS and 100 µl added to all wells in 96 well plates. Plates were sealed with parafilm and incubated for 5 days at 25°C. After 5 days, 20 µl of filter sterile resazurin solution (12.5 mg resazurin salt in 100 ml PBS) (Sigma) was added to each of the wells and the plate incubated for a further 24 hours at 25°C. Fluorescence was measured using an Envision plate reader (Perkin Elmer) at 540 nm excitation wavelength and 590 nm emission wavelength.

WT amastigote L. major = experiment: Intra-macrophage L. major amastigote assay; type: cell-based; settings: synthesised azapurine derivatives, infected peritoneal macrophages; for IC50: read-out: IC50 against WT amastigote L. major
Protocol: Macrophages were harvested from the peritoneum of Balb/C mice, centrifuged at 1000× g for 10 minutes at 4°C and resuspended in fresh RPMI 1640 media supplemented with 10% HIFCS and 1% (v/v) Gentamicin, as described previously. Macrophages were diluted to a cell density of 5×10^5 cells ml^-1 in RPMI supplemented with 10% HIFCS and 100 μl were added to each well of a 16-well Lab-tek cavity slide (50,000 mφ/well) and incubated at 37°C, 5% CO2 for subsequent experiments. […] Inhibitors were set up in a five-fold dilution series in RPMI 1640 medium supplemented with 10% […] of inhibitor were added to the wells in serial dilution and slides incubated for 72 hours at 37°C with 5% CO2. After 72 hours the medium was removed and replaced with fresh medium containing the same concentrations of inhibitors and incubated for a further 48 hours at 37°C with 5% CO2. At the end of the incubation period, the medium was removed, the slides were washed twice with fresh RPMI 1640 medium supplemented with 10% HIFCS then fixed with 100% methanol and stained with 10% Giemsa's stain for 10 minutes. The percentage of infected macrophages and number of amastigotes per macrophage were determined by light microscopy under oil immersion.

human CDK2:CycA = human CDK2:CycA (Homo sapiens, UniProt P24941); experiment: Mammalian protein kinase assay / counter screen, CDK2:CYCA; type: biochemical; settings: BioFocus SFK48 HTS hits, re-screen
Protocol: as §1

[1] = synthesised azapurine derivatives
[2] = BioFocus SFK48 HTS hits, rescreen

Leishmania CRK3:CYC6, sequence (Q4Q4U0 entry or part of it): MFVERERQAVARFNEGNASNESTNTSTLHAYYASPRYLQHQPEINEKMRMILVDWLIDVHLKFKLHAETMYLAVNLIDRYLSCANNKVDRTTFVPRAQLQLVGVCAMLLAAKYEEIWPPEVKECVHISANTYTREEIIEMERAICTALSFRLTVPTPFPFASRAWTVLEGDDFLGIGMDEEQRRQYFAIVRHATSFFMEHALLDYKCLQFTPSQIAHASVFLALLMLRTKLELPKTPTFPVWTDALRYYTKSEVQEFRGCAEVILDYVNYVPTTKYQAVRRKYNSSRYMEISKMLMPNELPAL
Leishmania CRK3:CYC6, sequence (O96526 entry or part of it): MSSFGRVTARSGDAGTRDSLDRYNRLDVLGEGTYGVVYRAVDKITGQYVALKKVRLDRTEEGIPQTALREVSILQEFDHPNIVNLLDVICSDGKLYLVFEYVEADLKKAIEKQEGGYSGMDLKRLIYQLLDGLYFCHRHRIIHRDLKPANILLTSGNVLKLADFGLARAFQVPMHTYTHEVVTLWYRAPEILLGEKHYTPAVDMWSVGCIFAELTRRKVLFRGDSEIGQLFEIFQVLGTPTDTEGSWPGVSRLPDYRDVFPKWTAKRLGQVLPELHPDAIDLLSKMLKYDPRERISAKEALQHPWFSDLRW

IC50 (Leishmania CRK3:CYC6; [1]) [µM] | IC50 (WT amastigote L. major) [µM] | IC50 (Leishmania CRK3:CYC6; [2]) [µM] | IC50 (human CDK2:CycA) [µM] | Compound | activity towards promastigote L. major (in words) (WT promastigote L. major) | IC50 (WT promastigote L. major; [1]) [µM] | IC50 (WT promastigote L. major; BioFocus SFK48 HTS hits) [µM] | further results
39.1 | 5 to 15 |  |  | COc1ccc(Cn2nnc3c(NCc4ccccn4)nc(CC4CCCCC4)nc32)cc1 [Compound 17] | showed a range of activity | 7.4 |  | inhibition of parasite growth in culture (in words) (WT promastigote L. major): inhibited parasite growth in culture
 |  |  |  | COc1ccc(Cn2nnc3c(N4CCOCC4)nc(CC4CCCCC4)nc32)cc1 [Compound 20] |  |  |  | inhibition of CRK3/CYC6 in vitro (in words) (Leishmania CRK3:CYC6): did not inhibit
> 50 |  |  |  | COc1ccc(-n2nnc3c(O)nc(Cc4ccc(Br)cc4)nc32)cc1 [Compound 26] |  |  |  | 
30.3 | 15 to 30 |  |  | COc1ccc(-n2nnc3c(N4CCOCC4)nc(CC4CCCCC4)nc32)cc1 [Compound 27] | showed a range of activity | 28.7 |  | inhibition of parasite growth in culture (in words) (WT promastigote L. major): inhibited parasite growth in culture
> 50 | 5 to 15 |  |  | COc1ccc(-n2nnc3c(NCCN4CCOCC4)nc(CC4CCCCC4)nc32)cc1 [Compound 28] | showed a range of activity | 8.3 |  | inhibition of CRK3/CYC6 in vitro (in words) (Leishmania CRK3:CYC6): did not inhibit; inhibition of parasite growth in culture (in words) (WT promastigote L. major): inhibited parasite growth in culture
> 100 |  |  |  | COc1ccc(-n2nnc3c(NCCN4CCOCC4)nc(Cc4ccccc4)nc32)cc1 [Compound 30] | showed a range of activity | 3.8 |  | inhibition of parasite growth in culture (in words) (WT promastigote L. major): inhibited parasite growth in culture; activity against amastigotes (in words) (WT amastigote L. major): Activity observed at 10 μM
> 20 |  |  |  | COc1ccc(-n2nnc3c(N4CCCC(CO)C4)nc(Cc4ccccc4)nc32)cc1 (stereo not drawn) [Compound 31] | showed a range of activity | 40 |  | activity against amastigotes (in words) (WT amastigote L. major): Activity observed at 25 μM
> 100 | > 25 |  |  | COc1ccc(-n2nnc3c(NCC(C)O)nc(Cc4ccccc4)nc32)cc1 (stereo not drawn) [Compound 32] |  | > 50 |  | 
> 50 | > 50 |  |  | ONc1nc(CC2CCCCC2)nc2c1nnn2Cc1ccc(F)cc1 [Compound 35] |  | > 50 |  | 
 |  | 3.5 | > 20 | NC(c1ccccc1)c1csc(NC(=O)Nc2ccccc2)n1 (stereo not drawn) [Compound 36] |  |  | 26.8 | 
 |  | 4.8 | > 20 | NC(c1ccccc1)c1csc(NC(=O)Nc2ccccc2Cl)n1 (stereo not drawn) [Compound 37] |  |  | 27.5 | 
 |  | 5 | > 20 | COc1ccc(CC(N)c2csc(NC(=O)Nc3ccccc3Oc3ccccc3)n2)cc1 (stereo not drawn) [Compound 38] |  |  | 3.3 | 
 |  | 7.5 | > 20 | COc1ccc(C(N)c2csc(NC(=O)Nc3ccc(C(C)C)cc3)n2)cc1 (stereo not drawn) [Compound 39] |  |  | 3.8 | 
 |  | 7.8 | > 20 | CC(C)c1ccccc1NC(=O)Nc1nc(C2CCC(=O)N2)cs1 (stereo not drawn) [Compound 40] |  |  | > 50 | 
 |  | 9 | > 20 | Cc1ccccc1NC(=O)Nc1nc(C(N)c2ccccc2Cl)cs1 (stereo not drawn) [Compound 41] |  |  | 26.1 | 
 |  | 10 | > 20 | NC(c1ccccc1)c1csc(NC(=O)Nc2ccc(OC(F)(F)F)cc2)n1 (stereo not drawn) [Compound 42] |  |  | 6.9 | 
